{"source": "patent US8192962B2", "about": "“Processes for detecting toxic substances” (Daikin Industries, Ltd., priority 2001, dated 2012)", "tested_on": "Mitochondria-located protein genes", "assay": "DNA chip mRNA expression in yeast, mitochondria-located protein genes (Table 2)", "assay_type": "cell-based, Saccharomyces cerevisiae S288C", "details": "cells incubated two hours with the chemical substance", "experimental": "Yeast (Saccharomyces cerevisiae S288C (α SUC2mal mel gap2 CUP1)) were incubated at 25° C. on YPD medium (yeast extract 1%, polypepton 2%, glucose 2%). One of toxic chemical substances was added to the cells at logarithmic growth phase, and the cells were further incubated for two hours. Cells were cultured without any chemical substance in the same condition, and were used as control. Concentrations of the chemical substances were defined to inhibit the growth of the yeast but not lead to death.\nAfter completion of the incubation, the culture was centrifuged to collect the cells. To the cells, sodium acetate buffer (50 mM sodium acetate, 10 mM EDTA, 1% SDS) was added, and the mixture was shaken at 65° C. for five minutes, followed by returning to room temperature, and obtaining the supernatant, of which the procedures were repeated two times. To the supernatant, ½ amount of a solution of phenol/chloroform was added, and the mixture was centrifuged to give a supernatant, which was added with an equal amount of chloroform, and the mixture was centrifuged to give a supernatant. To the supernatant, an equal amount of isopropanol containing 0.3 M sodium acetate was added, and the mixture was allowed to stand at room temperature for 30 minutes, after which the mixture was centrifuged to give a sediment of the whole RNAs. Seventy % ethanol was added to the sediment, and the mixture was again centrifuged to give a sediment, which was then dried and dissolved in water. mRNA was isolated from the whole RNAs as followings. In view of the fact that a poly A chain is attached to the 3′ terminus of mRNA, a polynucleotide having a poly T structure which was immobilized on the surface of latex beads was used to trap the mRNA, and then the mRNA was washed and eluted with spine column (Oligotex-dT30<Super>mRNA Purification Kit, Takara). Reverse transcription of the mRNA was conducted with a reverse transcriptase (Super Script II Reverse Transcriptase; catalogue No. 18064-014, GibcoBRL) using fluorescence-labeled nucleotides to give cDNAs that were introduced with Cy3-dUTP or Cy5-dUTP during the reverse transcription.\nThe labeled cDNAs were dissolved in TE buffer (10mM Tris-HCl/1 mM EDTA, pH8.0), and the solution was dropped on the DNA chip containing the whole genes of yeast (DNA Chip Research Inc. Japan) so that the cDNAs were hybridized on the DNA chip at 65° C. for over 12 hours. The fluoresces intensity of the DNA chip was read with a scanner, and the ratio relative to the fluorescence intensity resulting from the absence of chemical substance was estimated as the following, which is shown in Tables 1 to 9: […]"}
{"smiles": "C[S+](C)[O-]", "note": "[(15), dimethylsulfoxide]", "values": [{"measurement": "The level of expressed mRNA in the presence of chemical substance/The level of expressed mRNA in the absence of chemical substance", "setting": "yeast gene YBR029C", "result": 3.5}, {"measurement": "The level of expressed mRNA in the presence of chemical substance/The level of expressed mRNA in the absence of chemical substance", "setting": "yeast gene YBR291C", "result": 0.5}, {"measurement": "The level of expressed mRNA in the presence of chemical substance/The level of expressed mRNA in the absence of chemical substance", "setting": "yeast gene YDR529C", "result": 0.5}, {"measurement": "The level of expressed mRNA in the presence of chemical substance/The level of expressed mRNA in the absence of chemical substance", "setting": "yeast gene YEL039C", "result": 0.4}, {"measurement": "The level of expressed mRNA in the presence of chemical substance/The level of expressed mRNA in the absence of chemical substance", "setting": "yeast gene YGR029W", "result": 0.4}, {"measurement": "The level of expressed mRNA in the presence of chemical substance/The level of expressed mRNA in the absence of chemical substance", "setting": "yeast gene YGR062C", "result": 0.5}, {"measurement": "The level of expressed mRNA in the presence of chemical substance/The level of expressed mRNA in the absence of chemical substance", "setting": "yeast gene YGR076C", "result": 0.5}, {"measurement": "The level of expressed mRNA in the presence of chemical substance/The level of expressed mRNA in the absence of chemical substance", "setting": "yeast gene YIL022W", "result": 2.9}, {"measurement": "The level of expressed mRNA in the presence of chemical substance/The level of expressed mRNA in the absence of chemical substance", "setting": "yeast gene YIL094C", "result": 0.5}, {"measurement": "The level of expressed mRNA in the presence of chemical substance/The level of expressed mRNA in the absence of chemical substance", "setting": "yeast gene YJL166W", "result": 0.5}, {"measurement": "The level of expressed mRNA in the presence of chemical substance/The level of expressed mRNA in the absence of chemical substance", "setting": "yeast gene YKL085W", "result": 0.5}, {"measurement": "The level of expressed mRNA in the presence of chemical substance/The level of expressed mRNA in the absence of chemical substance", "setting": "yeast gene YKL170W", "result": 0.8}, {"measurement": "The level of expressed mRNA in the presence of chemical substance/The level of expressed mRNA in the absence of chemical substance", "setting": "yeast gene YKL194C", "result": 0.8}, {"measurement": "The level of expressed mRNA in the presence of chemical substance/The level of expressed mRNA in the absence of chemical substance", "setting": "yeast gene YKR052C", "result": 0.5}, {"measurement": "The level of expressed mRNA in the presence of chemical substance/The level of expressed mRNA in the absence of chemical substance", "setting": "yeast gene YLL041C", "result": 0.4}, {"measurement": "The level of expressed mRNA in the presence of chemical substance/The level of expressed mRNA in the absence of chemical substance", "setting": "yeast gene YLR295C", "result": 0.5}, {"measurement": "The level of expressed mRNA in the presence of chemical substance/The level of expressed mRNA in the absence of chemical substance", "setting": "yeast gene YLR395C", "result": 0.4}, {"measurement": "The level of expressed mRNA in the presence of chemical substance/The level of expressed mRNA in the absence of chemical substance", "setting": "yeast gene YML110C", "result": 1.3}, {"measurement": "The level of expressed mRNA in the presence of chemical substance/The level of expressed mRNA in the absence of chemical substance", "setting": "yeast gene YML120C", "result": 0.5}, {"measurement": "The level of expressed mRNA in the presence of chemical substance/The level of expressed mRNA in the absence of chemical substance", "setting": "yeast gene YOR037W", "result": 0.9}, {"measurement": "The level of expressed mRNA in the presence of chemical substance/The level of expressed mRNA in the absence of chemical substance", "setting": "yeast gene YOR374W", "result": 2.5}]}
